Patent publication US20230159931A1, “TARGETING THE PALMOTYLATION/DEPALMOTYLATION CYCLE TO TREAT INFLAMMATORY DISEASES” (CORNELL UNIVERSITY, priority 2020, published 2023)

System: DSS-induced colitis in mice
Assay: DSS-induced mouse colitis model
Assay type: in vivo
Experimental: FIGS. 4A-4I. The STAT3 palmitoylation-depalmitoylation cycle aggravates colitis. (A), (B) Human PBMCs from 26 healthy participants (Ctrl), 24 patients with Crohn's disease (CD; 7 remission stage (rem.) and 17 active stage (act.)) and 10 patients with ulcerative colitis (UC; 1 remission stage and 9 active stage) were extracted. LYPLA2 and ZDHHC7 mRNA levels were analysed using qPCR. The relative p-STAT3 levels were quantified by western blots. c, d, The correlations between IL17A (C) or p-STAT3 (D) and the mRNA levels of the indicated genes in 34 patients with IBD. (E), (F), C57BL/6J mice were treated with 2.5% DSS in drinking water ad libitum and ML349 was intraperitoneally injected daily on the day that DSS treatment started. Body weight changes (E) and TH17 cell levels in the spleen (F) were evaluated. (G), (H), Wild-type and DHHC7-knockout mice were treated with 2.5% DSS in drinking water ad libitum. Body weight changes (G) and TH17 cell levels in the spleen (H) were evaluated. (I), Model of the regulation of STAT3 by the palmitoylation-depalmitoylation cycle. Palmitoylation of STAT3 by DHHC7 promotes the membrane recruitment and phosphorylation of STAT3. APT2 promotes the nuclear translocation of p-STAT3 by selectively depalmitoylating p-STAT3 over STAT3. The palmitoylation-depalmitoylation cycle drives the membrane localization and phosphorylation of STAT3, and the nuclear translocation of p-STAT3. The direction of the cycle is ensured by the preference of APT2 for p-STAT3 over STAT3. Data are expressed as the mean±s.e.m. *P<0.05; **P<0.01.
The mouse protocol 2019-0009 was approved by the Institutional Animal Care and Use Committee (IACUC) at Cornell University. All animals were housed under specific-pathogen-free conditions following the regulations of the IACUC. Mice (6-8 weeks old) were randomized into different groups (8 mice per group, mixed sex) as indicated. Colitis was induced by treating with 3.0% DSS (MP Biomedicals) in their drinking water ad libitum. ML349 solution was intraperitoneally injected into the mice at the indicated doses every other day. All mice were euthanized and the spleens were isolated to detect T cells. The distance from caecum to anus was measured. The colon was fixed in 4% paraformaldehyde for pathological examination. The study was not blinded.
The inventors tested whether the pharmacological inhibition of APT2 with ML349 could reduce dextran sulfate sodium (DSS)-induced colitis in mice, an experimental model for IBD.

[1] = DSS treatment followed by ML349 treatment, intraperitoneal
[2] = pretreatment with ML349 followed by treatment with DSS

COc1ccc(N2CCN(C(=O)c3cc4c(s3)-c3ccccc3S(=O)(=O)C4)CC2)cc1 [ML349]
colon shortening [1]: significantly attenuated
weight loss [1]: significantly attenuated
levels of TH17 cells in mouse splenocytes (DSS-treated mice, spleen): significantly decreased
survival rate [2]: increased the survival rate
weight loss [2]: significantly attenuated weight loss
